In test [1] the target is T1, cytoplasmic domain of the human CSF-1R (Homo sapiens, UniProt P07333).
T1 construct: Recombinant protein corresponding to the cytoplasmic domain of the human CSF-1R; purchased Invitrogen Corporation, Carlsbad, Calif; PV3249
T1 sequence (P07333 539-972 limits assumed): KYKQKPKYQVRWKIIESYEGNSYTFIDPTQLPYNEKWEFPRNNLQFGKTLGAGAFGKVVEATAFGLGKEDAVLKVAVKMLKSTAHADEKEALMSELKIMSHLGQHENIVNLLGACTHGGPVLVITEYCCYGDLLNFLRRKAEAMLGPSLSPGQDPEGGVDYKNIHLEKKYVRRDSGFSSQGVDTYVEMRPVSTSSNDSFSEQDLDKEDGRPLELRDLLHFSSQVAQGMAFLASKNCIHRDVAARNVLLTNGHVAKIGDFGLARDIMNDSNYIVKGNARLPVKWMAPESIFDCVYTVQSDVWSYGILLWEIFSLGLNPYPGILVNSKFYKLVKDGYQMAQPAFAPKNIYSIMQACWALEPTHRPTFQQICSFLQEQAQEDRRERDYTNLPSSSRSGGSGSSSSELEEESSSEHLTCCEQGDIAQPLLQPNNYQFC
In words: In vitro kinase assay for CSF-1R (AlphaScreen). The format is biochemical. Particulars: tested at about 1 μM; read-out: CSF1RK 1 percent inhibition. As to the method: The kinase activity of various protein tyrosine kinases can be measured by providing ATP and a suitable peptide or protein tyrosine-containing substrate, and assaying the transfer of phosphate moiety to the tyrosine residue. Recombinant protein corresponding to the cytoplasmic domain of the human CSF-1R was purchased from Invitrogen Corporation, Carlsbad, Calif. U.S.A. (#PV3249). For each assay, test compounds were serially diluted, starting at 25 μM with 3 fold dilutions, in DMSO in 384 well plates then mixed with an appropriate kinase reaction buffer consisting of 50 mM Hepes, 5 mM MgCl2, 10 mM MnCl2, 0.1% BSA, pH 7.5, 1.0 mM dithiothreitol, 0.01% Tween 80 plus 1 μM ATP. Kinase protein and an appropriate biotinylated peptide substrate at 50 nM were added to give a final volume of 20 μL, reactions were incubated for 2 hours at room temperature and stopped by the addition of 10 μL of 45 mM EDTA, 50 mM Hepes pH 7.5. Added to the stopped reaction mix was 30 μL of PT66 Alphascreen beads (Perkin Elmer, Boston, Mass., U.S.A.). The reaction was incubated overnight and read on the Envision (Perkin Elmer). Phosphorylated peptide product was measured with the AlphaScreen system (Perkin Elmer) using acceptor beads coated with anti-phosphotyrosine antibody PT66 and donor beads coated with streptavidin that emit a fluorescent signal at the 520-620 nm emission wave length if in close proximity. The concentration of each compound for 50% inhibition (IC50) was calculated by non-linear regression using XL Fit data analysis software.
CSF-1R kinase was assayed in 50 mM Hepes pH 7.0, 5 mM MgCl2, 10 mM MnCl2, 1 mM DTT, 1 mg/mL BSA, 1.0 μM ATP, and 0.05 μM biotin-GGGGRPRAATF-NH2 (SEQ ID NO:1) peptide substrate. CSF-1R kinase was added at final concentration of 4 nM.
For orientation: Alpha assays give light when donor and acceptor beads are brought close together.

The target of the next test is T2, cKIT (Homo sapiens, UniProt P10721).
T2 construct: The kinase domain of cKIT was assayed in 50 mM Hepes; purchased Upstate 14-559
Description: cKIT kinase in vitro biochemical assay (alphascreen). Particulars: tested at about 1 μM; read-out: CKIT percent inhibition. As to the method:
(§1) The IC50 values for the inhibition of RTKs were determined in the alphascreen format measuring the inhibition by compound of phosphate transfer to a substrate by the respective enzyme. Briefly, the respective RTK domain purchased as human recombinant protein (cKIT Upstate #14-559, PDGFRb Invitrogen #P3082) were incubated with serial dilutions of compound in the presence of substrate and ATP concentrations within 3 times the Km of the enzyme.
(§2) The kinase domain of cKIT was assayed in 50 mM Hepes, pH=7.5, 5 mM MgCl2, 10 mM MnCl2, 1 mM DTT, 0.1% BSA with 0.06 uM biotinylated peptide substrate (GGLFDDPSYVNVQNL-NH2) and 15 uM ATP (ATP KM apparent=15 uM). The kinase domain of PDGFRβ was assayed in 50 mM Hepes, pH=7.5, 20 mM MgCl2, 1 mM DTT, 0.1% BSA with 0.1 uM biotinylated peptide substrate (GGLFDDPSYVNVQNL-NH2) and 10 uM ATP (ATP KM apparent=25 uM). Reactions were incubated at room temperature for 3 to 4 hr and stopped with buffer (20 mM EDTA, 0.01% Tween-20 for both PDGFRb and cKIT). Alphascreen PY20 beads were added to the stopped cKIT reactions and PY20 Ab/Protein A Alphascreen beads were added to the PDGFRβ stopped reactions. Both reactions were incubated overnight and read on the Alphascreen reader. The concentration of compound for 50% inhibition (IC50) was calculated employing non-linear regression using XL-Fit data analysis software. As a control compound, staurosporine is run in every assay and a Z′>0.5 is required to validate results.

The next test concerns the target T3, PDGFRb (Homo sapiens, UniProt P09619).
T3 construct: The kinase domain of PDGFRβ was assayed in 50 mM Hepes; purchased Invitrogen P3082
Description: PDGFRb kinase in vitro biochemical assay (alphascreen). Particulars: tested at about 1 μM; read-out: PDGF RK BETA percent inhibition. As for the experimental part: as §1, §2

T3 sequence (P09619 600-962 limits assumed): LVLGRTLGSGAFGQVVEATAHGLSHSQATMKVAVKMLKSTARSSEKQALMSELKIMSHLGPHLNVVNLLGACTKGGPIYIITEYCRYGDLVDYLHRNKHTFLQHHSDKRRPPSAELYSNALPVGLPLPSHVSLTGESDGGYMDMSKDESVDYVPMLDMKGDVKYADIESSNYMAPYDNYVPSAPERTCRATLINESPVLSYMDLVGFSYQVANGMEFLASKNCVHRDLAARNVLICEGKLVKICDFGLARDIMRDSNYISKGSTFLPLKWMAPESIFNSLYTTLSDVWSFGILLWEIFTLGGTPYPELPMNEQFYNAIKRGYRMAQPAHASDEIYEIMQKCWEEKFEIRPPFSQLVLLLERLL
T2 sequence (P10721 589-937 limits assumed): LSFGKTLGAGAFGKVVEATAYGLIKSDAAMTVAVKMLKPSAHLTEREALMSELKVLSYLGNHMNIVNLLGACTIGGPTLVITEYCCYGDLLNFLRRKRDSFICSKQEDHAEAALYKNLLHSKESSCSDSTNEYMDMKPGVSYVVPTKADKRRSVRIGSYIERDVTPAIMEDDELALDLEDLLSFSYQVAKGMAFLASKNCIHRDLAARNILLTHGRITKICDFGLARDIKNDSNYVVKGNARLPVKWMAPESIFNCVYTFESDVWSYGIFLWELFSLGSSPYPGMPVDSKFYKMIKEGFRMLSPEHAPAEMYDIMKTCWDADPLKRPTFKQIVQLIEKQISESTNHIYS

By inhibition is commonly meant the drop in the measured response relative to a control, in per cent. On to `Clc1cc(Oc2ccc3nc(NCC4CCCCC4)sc3c2)ncn1` [Compound 2, 6-(6-chloropyrimidin-4-yloxy)-N-(cyclohexylmethyl)benzo[d]thiazol-2-amine], for which the inhibition at 1 µM was 78% in test [1], 11% at cKIT and 6% on PDGFRb.

Take `Nc1cc(Oc2ccc3nc(NCC4CCCCC4)sc3c2)nc(N)n1` [Compound 3, 6-(2-(cyclohexylmethylamino)benzo [d]thiazol-6-yloxy) pyrimidine-2,4-diamine]: the values for the inhibition at 1 µM (in test [1]; on cKIT; at PDGFRb) were 19%, 23% and 0%, respectively.

As for `Clc1nccc(Oc2ccc3nc(NCC4CCCCC4)sc3c2)n1` [Compound 4, 6-(2-chloropyrimidin-4-yloxy)-N-(cyclohexylmethyl) benzo[d]thiazol-2-amine], the values for the inhibition at 1 µM (in test [1]; at cKIT; at PDGFRb) were 73%, 23% and 0%, respectively.

On to `O[C@@H]1CCCC[C@H]1Nc1nc2ccc(Oc3cc(Cl)ncn3)cc2s1` [Compound 5, (1R,2R)-2-(6-(6-chloropyrimidin-4-yloxy)benzo[d]thiazol-2-ylamino) cyclohexanol], for which the inhibition at 1 µM came to 41% in test [1], 25% on cKIT and 0% on PDGFRb.

Turning to `O[C@@H]1CCCC[C@H]1Nc1nc2ccc(Oc3ccnc(Cl)n3)cc2s1` [Compound 6, (1R,2R)-2-(6-(2-chloropyrimidin-4-yloxy)benzo[d]thiazol-2-ylamino) cyclohexanol], the inhibition at 1 µM stood at 18% in test [1], 19% at cKIT and 0% at PDGFRb.

Consider `c1nc(Oc2ccc3nc(NCC4CCCCC4)sc3c2)cc(N2CCOCC2)n1` [Compound 11, N-(cyclohexylmethyl)-6-(6-morpholinopyrimidin-4-yloxy)benzo[d]thiazol-2-amine], for which the inhibition at 1 µM in test [1] amounted to 68%; on cKIT, 19%; on PDGFRb, 13%.

For the molecule `CC(=O)NCCNc1cc(Oc2ccc3nc(NCC4CCCCC4)sc3c2)ncn1` [Compound 12, N-(2-(6-(2-(cyclohexylmethylamino)benzo[d]thiazol-6-yloxy)pyrimidin-4-ylamino)ethyl) acetamide], the inhibition at 1 µM in test [1] was determined as 80%; at cKIT it was 13%; at PDGFRb, 37%.

As for `CC(=O)NCCNc1cc(Oc2ccc3nc(NCC4CCCCC4)sc3c2)nc(N)n1` [Compound 14, N-(2-(2-amino-6-(2-(cyclohexyl-methylamino)benzo[d]thiazol-6-yloxy)pyrimidin-4-ylamino)ethyl)acetamide], the inhibition at 1 µM was 26% in test [1], 23% on cKIT and 0% on PDGFRb.

Turning to `c1cc(Oc2ccc3nc(NCC4CCCCC4)sc3c2)nc(N2CCOCC2)n1` [Compound 15, N-(cyclohexylmethyl)-6-(2-morpholinopyrimidin-4-yloxy)benzo[d]thiazol-2-amine], the inhibition at 1 µM in test [1] came to 94%; on cKIT, 26%; on PDGFRb, 16%.

Consider `CC(=O)NCCNc1nccc(Oc2ccc3nc(NCC4CCCCC4)sc3c2)n1` [Compound 16, N-(2-(4-(2-(cyclohexylmethylamino)benzo[d]thiazol-6-yloxy)pyrimidin-2-ylamino)ethyl) acetamide], for which the values for the inhibition at 1 µM (in test [1]; on cKIT; at PDGFRb) were 89%, 22% and 35%, respectively.

As to `C[C@H](Nc1nc2ccc(Oc3cc(Cl)ncn3)cc2s1)C1CCCCC1` [Compound 35, (S)-6-(6-chloropyrimidin-4-yloxy)-N-(1-cyclohexylethyl) benzo[d]thiazol-2-amine], the figures for the inhibition at 1 µM (in test [1]; on cKIT; on PDGFRb) were 79%, 20% and 2%, respectively.

As to `C[C@H](Nc1nc2ccc(Oc3ccnc(Cl)n3)cc2s1)C1CCCCC1` [Compound 36, (S)-6-(2-chloropyrimidin-4-yloxy)-N-(1-cyclohexylethyl)benzo[d]thiazol-2-amine], the figures for the inhibition at 1 µM (in test [1]; on cKIT; at PDGFRb) were 59%, 19% and 0%, respectively.

For `c1nc(Oc2ccc3nc(NCC4CCCCC4)sc3c2)c2sccc2n1` [Compound 38, N-(cyclohexylmethyl)-6-(thieno[3,2-d]pyrimidin-4-yloxy) benzo[d]thiazol-2-amine], the inhibition at 1 µM is 100% in test [1], 99% on cKIT and 83% at PDGFRb.

For the molecule `C[C@H](Nc1nc2ccc(Oc3cc(-n4cncn4)ccn3)cc2s1)C1CCCCC1` [Compound 39, (S)-6-(4-(1H-1,2,4-triazol-1-yl)pyridin-2-yloxy)-N-(1-cyclohexylethyl) benzo[d]thiazol-2-amine], the inhibition at 1 µM was 27% in test [1], 33% at cKIT and 0% at PDGFRb.

Consider `C[C@H](Nc1nc2ccc(Oc3cncc(-n4cncn4)n3)cc2s1)C1CCCCC1` [Compound 40, (S)-6-(6-(1H-1,2,4-triazol-1-yl)pyrazin-2-yloxy)-N-(1-cyclobexylethyl)benzo[d]thiazol-2-amine], for which the inhibition at 1 µM in test [1] stood at 68%; at cKIT, 32%; at PDGFRb, 17%.

Turning to `O[C@@H]1CCCC[C@H]1Nc1nc2ccc(Oc3cncc(-n4cncn4)n3)cc2s1` [Compound 42, (1R,2R)-2-(6-(6-(1H-1,2,4-triazol-1-yl)pyrazin-2-yloxy)benzo[d]thiazol-2-ylamino)cyclohexanol], the inhibition at 1 µM was found to be 51% in test [1], 9% on cKIT and 10% at PDGFRb.

Consider `O[C@@H]1CCCC[C@H]1Nc1nc2ccc(Oc3cc(-n4cncn4)ncn3)cc2s1` [Compound 43, (1R,2R)-2-(6-(6-(1H-1,2,4-triazol-1-yl)pyrimidin-4-yloxy)benzo[d]thiazol-2-ylamino)cyclohexanol], for which the figures for the inhibition at 1 µM (in test [1]; at cKIT; on PDGFRb) were 57%, 15% and 14%, respectively.

In the case of `CNC(=O)c1ccncc1Oc1ccc2nc(NCC3CCCCC3)sc2c1` [Compound 49, 3-(2-(cyclohexylmethylamino)benzo[d]thiazol-6-yloxy)-N-methylisonicotinamide], the inhibition at 1 µM in test [1] came to 95%; on cKIT, 32%; on PDGFRb it was 6%.

With `CNC(=O)c1cncc(Oc2ccc3nc(NCC4CCCCC4)sc3c2)n1` [Compound 50, 6-(2-(cyclohexylmethylamino)benzo [d]thiazol-6-yloxy)-N-methylpyrazine-2-carboxamide], the inhibition at 1 µM was 98% in test [1], 32% on cKIT and 11% at PDGFRb.

Source of the values: patent US8293769B2, “CSF-1R inhibitors, compositions, and methods of use” (Novartis AG, priority 2008, dated 2012).
